IC50 and inhibition type data for 2 compounds are collected here from article PMC6952399, “Structures of lipoprotein signal peptidase II from Staphylococcus aureus complexed with antibiotics globomycin and myxovirescin” (Nature Communications, 2020).

Experiment [1] deals with T1, LspMrs (lipoprotein signal peptidase II from methicillin-resistant Staphylococcus aureus) (Staphylococcus aureus, UniProt Q6GHN9).
T1 construct: MGSS-hexahistidine-SSGR-TEV site (ENLYFQ) (N, cleaved yes); made in house; host or cells: E. coli C43 (DE3)
Put plainly: Coupled gel-shift peptidase assay with proICP substrate, LspMrs WT. It is filed as biochemical. To be noted: proICP substrate (12 µM pre-proICP), 0.5 µM enzyme, 30 min. From the text:
(§1) The peptidase activity of LspMrs and P. aeruginosa LspA (LspPae) was quantified in a coupled gel-shift assay developed previously for LspPae[5]. The P. aeruginosa lipoprotein pre-proICP and the first two enzymes in the bacterial lipoprotein processing pathway Lgt and LspA were expressed and purified, as described. For FRET assays LspMrs was expressed and purified as described above and LspPae was expressed and purified as described in a published protocol.
Gel-shift activity assay. For time course assays, reactions were set up containing 12 µM pre-proICP, 250 µM DOPG (Avanti Polar Lipids, Inc.) and 1.2 µM Lgt in Buffer E (50 mM Tris/HCl pH 7.5, 150 mM NaCl, 1 mM DTT, 0.02%(w/v) LMNG). The assay mixtures were incubated at 37 °C and 200 rpm for 60 min to allow Lgt catalysed conversion of pre-proICP to the LspA substrate proICP. The LspA reaction was initiated by adding 0.5 µM LspA directly to the assay mixture. At timed intervals, 20 µL samples were removed and the reaction was stopped by adding 10 µL of 4x SDS loading buffer (62.5 mM Tris/HCl pH 6.8, 2.5%(w/v) SDS, 0.002%(w/v) bromophenol blue, 0.5 M β-mercaptoethanol, 10%(v/v) glycerol). To compare the activity of wild-type and mutant LspMrs, assays were allowed to proceed for 30 min before being stopped with SDS loading buffer. […] Band intensities of ICP were quantified using Image Lab. […]

Another experiment deals with T2, LspMrs N52A (Staphylococcus aureus, UniProt Q6GHN9, N52A).
T2 construct: MGSS-hexahistidine-SSGR-TEV site (ENLYFQ) (N, cleaved yes); made in house; host or cells: E. coli C43 (DE3)
Briefly: Gel-shift peptidase assay, LspMrs N52A mutant. It is filed as biochemical, methicillin-resistant Staphylococcus aureus. The protocol: (§2) LspA mutant genes (N52A, N52Q, G54A, G54P, R110A, R110K, D118N, N133A, N133Q and D136N) were obtained by site-directed mutagenesis of the wild-type lspA construct in pETDuet. Mutagenesis was performed using the Q5® Site-Directed Mutagenesis Kit (New England Biolabs) and specific primers are listed in Supplementary Table 5. The correct mutations were confirmed by sequencing (Eurofins Genomics). Expression and purification of all LspMrs wild-type and mutants for enzyme assays were performed as described above with the following modifications: TALON® Metal Affinity Resin (Clontech) was used for IMAC purification and the detergent DDM was used for membrane solubilisation and protein purification.
as §1
(§3) Gel-shift activity assay. […] Band intensities of ICP were quantified using Image Lab. […]

The next experiment has as its target T3, LspMrs G54A (Staphylococcus aureus, UniProt Q6GHN9, G54A).
T3 construct: MGSS-hexahistidine-SSGR-TEV site (ENLYFQ) (N, cleaved yes); made in house; host or cells: E. coli C43 (DE3)
Put plainly: Gel-shift peptidase assay, LspMrs G54A mutant. The format is biochemical, methicillin-resistant Staphylococcus aureus. The protocol:
as §2, §1, §3

The test system of another experiment is LspA from E. coli. More on the design: method as in earlier work. To be noted: ref 7 (supplementary references); cited from earlier work.

In the case of `CCCCCC[C@H]1OC(=O)CNC(=O)[C@H]([C@H](C)O)NC(=O)[C@H](CO)NC(=O)[C@H]([C@H](C)CC)NC(=O)[C@H](CC(C)C)N(C)C(=O)[C@@H]1C` [globomycin], the IC50 is 171 µM in experiment [1], 1230 ± 590 nM on LspMrs N52A and 1780 ± 250 nM at LspMrs G54A. Besides, the inhibition type result with LspA from E. coli is given as “non-competitive”.

Turning to `CCCC1OC(=O)C(C)CC(C)CCCCC(=O)CCCC(CC)C=CC=C(COC)CCC(O)C(O)CC(O)CNC1=O` (stereo not drawn) [myxovirescin, myxovirescin A1], the values for the IC50 (in experiment [1]; at LspMrs G54A) were 0.16 µM and 570 ± 10 nM, respectively.
